Assay [1] has as its system T-iPS-T cells. Briefly: Comparison with PBMC feeder: proliferation of T-iPS-T cells. Type of assay: cell-based, human. Conditions: 1 μM added to CD3/CD28 Dynabeads vs PBMC feeder, FIG. 10. The protocol: By using T-iPS-T cells, a proliferation promoting effect was compared by culturing the cells using the following three methods: the same stimulation method as in Example 2 using PBMC feeder, the same stimulation method as in Example 4 using CD3/CD28 Dynabeads, and the same stimulation method as in Example 4 in which berbamine (SIGMA, 547190) at 1 μM was added to CD3/CD28 Dynabeads. The PBMC feeder cells were labeled using CellTrace CFSE Cell Proliferation Kit for Flow Cytometry (CFSE, Invitrogen, 100 nM) in order to discriminate them from T-iPS-T cells, and then, a radiation irradiation treatment was performed.
From the above results, it can be said that the present invention can substitute PBMCs which have been conventionally used for the proliferation of T cells.

For assay [2], the system named is T-iPS-T cells. Briefly: Number of viable T-iPS-T cells under feeder-free culture (CD3/CD28 Dynabeads, Cell Count Reagent SF, absorbance 450 nm/650 nm). Type of assay: cell-based, human. Conditions: for number of viable cells (OD value): T-iPS-T cells after 1st expansion, DMSO control 0.225 ± 0.017. The protocol: T-iPS-T cells (1,500 cells/well) after 1st expansion were seeded and cultured in RPMI-1640 medium (SIGMA, R8758) supplemented with 15% FBS (CORNING, 35-076-CV, 35076104R), 1% PSG (SIGMA, G1146), PAA (50 μg/mL, Nacalai Tesque, 03420-52), ITS-G, IL-7 (5 ng/mL), IL-12 (50 ng/mL), IL-15 (5 ng/mL), IL-18 (50 ng/mL), IL-21 (20 ng/mL), and z-VAD-fmk (10 μM). The cells were stimulated by adding CD3/CD28 Dynabeads (Gibco, 11131D, the “Dynabeads” is a registered trademark) (4,500 beads/well) thereto, and 1,080 compounds [MedChemExpress, Apoptosis Compound Library (HY-L003), Cell Cycle/DNA Damage Compound Library (HY-L004), JAK/STAT Compound Library (HY-L008), MAPK Compound Library (HY-L010), NF-kappaB Compound Library (HY-L014), PI3K/Akt/mTOR Compound Library (HY-L015), and Wnt/Hedgehog/Notch Compound Library (HY-L020)] were added thereto (one type per well) at a final concentration of 1 μM, and then, the cells were cultured at 37° C. under 5% CO2.
DMSO (0.1%) that is a solvent for the compound was used as a control. After 6 days, the number of viable cells was measured using Cell Count Reagent SF (Nacalai Tesque, 07553) and a microplate reader (SoftMax Pro 5.X, Molecular Devices, 450 nm/650 nm).
A calibration curve for cell number was set as follows. When measuring the number of viable cells, 12-point serial dilution was performed for the same cells as those used in the screening, and the cells were seeded (0 to 1,536,000 cells/well) in RPMI-1640 medium supplemented with 15% FBS, 1% PSG, PAA, ITS-G, IL-7 (5 ng/mL) and IL-15 (5 ng/mL). The number of viable cells was measured together with the screening samples, and a calibration curve for WST-8 assay was formed.
In order to further evaluate the results obtained in Example 4, reproducibility was evaluated. As a method therefor, the same method as in Example 4 was used to carry out culturing and evaluation. As compounds, 20 compounds were selected and used among the compounds used in Example 4 including berbamine, and DMSO (0.1%) that is a solvent for the compound was used as a control. Note that in a statistical analysis, a Student's t-test was used (*: p<0.05).
The effect of a berbamine derivative on the proliferation of T cells was verified. As a method therefor, T-iPS-T cells after 1st expansion were cultured in the same manner as in Example 4, and berbamine (BBM) or each of 13 types of derivatives [BBMD1 to 13, Hebei Sundia MediTech Company Ltd.] was added thereto (one type per well) at a final concentration of 0.1 nM, 1 nM, 10 nM, 100 nM, or 1 μM, and then, the cells were cultured at 37° C. under 5% CO2. DMSO (0.1%) that is a solvent for the compound was used as a control.
After culturing for 6 days, the number of viable cells was measured using Cell Count Reagent SF (Nacalai Tesque, 07553) and a microplate reader (SoftMax Pro 5. X, Molecular Devices, 450 nm/650 nm), and the OD value was used as data. Note that in a statistical analysis, a Student's t-test was used (*: p<0.05). 1.

This is an account of results in patent US12168781B2, “Production method for T cells or NK cells, medium for culturing T cells or NK cells, method for culturing T cells or NK cells, method for maintaining undifferentiated state of undifferentiated T cells, and growth-accelerating agent for T cells or NK cells” (KIRIN HOLDINGS KABUSHIKI KAISHA, priority 2018, dated 2024).

As to `COc1cc2c3cc1Oc1c(OC)c(OC)cc4c1[C@@H](Cc1ccc(O)c(c1)Oc1ccc(cc1)C[C@@H]3N(C)CC2)N(C)CC4` [berbamine], in the assay with T-iPS-T cells [1], the “number of undifferentiated cells compared with the presence of feeder cells” value was “comparable results”. Besides, in the assay on T-iPS-T cells [1], the “number of viable cells compared with the presence of feeder cells” value is “significant increase in the number of viable cells”. In addition, the “number of viable cells (OD value)” value in the assay on T-iPS-T cells [2] (0.1 nM, 6 days) is 0.257 ± 0.018; with T-iPS-T cells [2] (1 nM, 6 days), 0.266 ± 0.024; with T-iPS-T cells [2] (10 nM, 6 days), 0.275 ± 0.019 *; in the assay on T-iPS-T cells [2] (100 nM, 6 days) it was 0.282 ± 0.031 *; in the assay with T-iPS-T cells [2] (1 μM, 6 days) it was 0.505 ± 0.034 ***. Besides, the “number of cells compared with DMSO (reproducibility of the screening)” value in the assay with T-iPS-T cells [2] (1 μM, 20 compounds, Student's t-test, FIG. 11) was “significant increase in the number of cells”. In addition, the “number of viable cells, rank among the 1,080 compounds screened” value with T-iPS-T cells [2] (1 μM, 6 days, FIG. 6) was “highest number of viable cells”.
